Columns and labels:
[1] = target: 5-hydroxytryptamine receptor 6 (Homo sapiens) (UniProt P50406); experiment: Antagonist activity at human recombinant 5HT6 receptor expressed in CHO cells assessed as inhibition of 5HT-induced luciferase activity after 4 hrs by reporter gene assay relative to control; type: functional, cell-based
[2] = target: 5-hydroxytryptamine receptor 6 (Homo sapiens) (UniProt P50406); experiment: Antagonist activity at human recombinant 5HT6 receptor expressed in CHO cells assessed as inhibition of 5HT-induced luciferase activity after 4 hrs by reporter gene assay; type: functional, cell-based
[3] = AUC (0 to 24 hrs) in fasted Wistar rat at 10 mg/kg, po; type: ADME, organism-based; set-up: time < 24 hr, dose 10 mg/kg, route oral; settings: plasma
[4] = Oral bioavailability in fasted Wistar rat at 10 mg/kg; type: ADME, organism-based; settings: in vivo
[5] = Tmax in fasted Wistar rat at 10 mg/kg, po; type: ADME, organism-based; set-up: dose 10 mg/kg, route oral; settings: in vivo
[6] = Cmax in fasted Wistar rat at 10 mg/kg, po; type: ADME, organism-based; set-up: dose 10 mg/kg, route oral; settings: in vivo
[7] = Clearance in Wistar rat at 5 mg/kg, iv; type: ADME, organism-based; set-up: dose 5 mg/kg, route intravenous; settings: in vivo
[8] = Half life in Wistar rat at 5 mg/kg, iv; type: ADME, organism-based; set-up: dose 5 mg/kg, route intravenous; settings: in vivo
[9] = Apparent volume of distribution in Wistar rat at 5 mg/kg, iv; type: ADME, organism-based; set-up: dose 5 mg/kg, route intravenous; settings: in vivo, read-out: Vz
[10] = AUC (0 to 24 hrs) in Wistar rat at 5 mg/kg, iv; type: ADME, organism-based; set-up: time < 24 hr, dose 5 mg/kg, route intravenous; settings: plasma
[11] = Ratio of drug uptake in brain to plasma in Wistar rat at 10 mg/kg, po after 1 hr; type: ADME, organism-based; set-up: dose 10 mg/kg, route oral; settings: read-out: BPR
[12] = Drug metabolism in human liver microsomes at 2.5 uM at 30 mins by LC-MS/MS analysis; type: ADME, Microsome; settings: read-out: Drug metabolism
[13] = Drug metabolism in Wistar rat liver microsomes at 2.5 uM at 30 mins by LC-MS/MS analysis; type: ADME, Microsome; settings: read-out: Drug metabolism
Cytochrome P450 2D6 = Cytochrome P450 2D6 (Homo sapiens, UniProt P10635); experiment: Inhibition of CYP2D6 in human liver microsomes using dextromethorphan as substrate after 10 mins by LC-MS/MS analysis in presence of NADPH
[14] = target: Voltage-gated inwardly rectifying potassium channel KCNH2 (Homo sapiens, UniProt Q12809); experiment: Displacement of [3H]astemizole from human ERG by microbeta scintillation counting
Voltage-gated inwardly rectifying potassium channel KCNH2, sequence (Q12809 whole entry): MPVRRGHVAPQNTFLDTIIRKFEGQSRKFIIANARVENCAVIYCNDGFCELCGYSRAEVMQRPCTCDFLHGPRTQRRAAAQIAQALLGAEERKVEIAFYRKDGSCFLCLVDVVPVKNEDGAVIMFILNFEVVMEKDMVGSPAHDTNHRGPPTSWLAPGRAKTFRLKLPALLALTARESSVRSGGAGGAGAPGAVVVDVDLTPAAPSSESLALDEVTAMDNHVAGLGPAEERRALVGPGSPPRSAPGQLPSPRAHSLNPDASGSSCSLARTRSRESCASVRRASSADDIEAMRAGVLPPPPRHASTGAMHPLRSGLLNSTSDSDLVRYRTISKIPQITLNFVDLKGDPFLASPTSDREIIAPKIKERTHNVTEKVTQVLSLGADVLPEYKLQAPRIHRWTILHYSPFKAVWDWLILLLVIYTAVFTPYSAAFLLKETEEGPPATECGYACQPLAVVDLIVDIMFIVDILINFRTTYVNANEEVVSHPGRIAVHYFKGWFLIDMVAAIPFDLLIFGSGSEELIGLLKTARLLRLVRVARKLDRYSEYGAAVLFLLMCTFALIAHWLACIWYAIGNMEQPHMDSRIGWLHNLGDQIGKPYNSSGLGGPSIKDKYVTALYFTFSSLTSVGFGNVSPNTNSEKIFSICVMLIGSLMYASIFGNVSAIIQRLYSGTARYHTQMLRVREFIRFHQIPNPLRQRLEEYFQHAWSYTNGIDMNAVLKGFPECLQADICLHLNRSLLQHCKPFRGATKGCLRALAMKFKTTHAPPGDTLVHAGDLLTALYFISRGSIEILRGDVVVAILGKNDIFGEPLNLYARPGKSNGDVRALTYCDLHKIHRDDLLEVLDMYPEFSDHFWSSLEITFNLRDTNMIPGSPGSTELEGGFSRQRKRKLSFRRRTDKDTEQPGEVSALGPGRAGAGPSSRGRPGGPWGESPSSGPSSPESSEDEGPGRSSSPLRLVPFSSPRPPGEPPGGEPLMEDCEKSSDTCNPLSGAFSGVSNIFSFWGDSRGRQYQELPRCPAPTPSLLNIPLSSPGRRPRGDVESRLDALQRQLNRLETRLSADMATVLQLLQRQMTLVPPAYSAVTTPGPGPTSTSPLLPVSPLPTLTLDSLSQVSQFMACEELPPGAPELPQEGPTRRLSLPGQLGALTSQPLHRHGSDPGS

5-hydroxytryptamine receptor 6 (Homo sapiens), sequence (P50406 whole entry): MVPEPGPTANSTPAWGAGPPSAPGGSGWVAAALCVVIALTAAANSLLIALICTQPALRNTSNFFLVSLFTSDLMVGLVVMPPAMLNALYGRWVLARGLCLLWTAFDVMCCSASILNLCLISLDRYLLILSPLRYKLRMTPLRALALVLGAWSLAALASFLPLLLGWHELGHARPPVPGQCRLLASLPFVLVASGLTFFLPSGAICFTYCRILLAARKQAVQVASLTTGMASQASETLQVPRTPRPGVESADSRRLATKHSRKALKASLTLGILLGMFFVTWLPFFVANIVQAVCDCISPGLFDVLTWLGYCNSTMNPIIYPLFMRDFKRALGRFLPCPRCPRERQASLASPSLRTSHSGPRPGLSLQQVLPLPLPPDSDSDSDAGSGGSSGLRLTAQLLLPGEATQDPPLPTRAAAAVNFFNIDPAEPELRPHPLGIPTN
Cytochrome P450 2D6, sequence (P10635 whole entry): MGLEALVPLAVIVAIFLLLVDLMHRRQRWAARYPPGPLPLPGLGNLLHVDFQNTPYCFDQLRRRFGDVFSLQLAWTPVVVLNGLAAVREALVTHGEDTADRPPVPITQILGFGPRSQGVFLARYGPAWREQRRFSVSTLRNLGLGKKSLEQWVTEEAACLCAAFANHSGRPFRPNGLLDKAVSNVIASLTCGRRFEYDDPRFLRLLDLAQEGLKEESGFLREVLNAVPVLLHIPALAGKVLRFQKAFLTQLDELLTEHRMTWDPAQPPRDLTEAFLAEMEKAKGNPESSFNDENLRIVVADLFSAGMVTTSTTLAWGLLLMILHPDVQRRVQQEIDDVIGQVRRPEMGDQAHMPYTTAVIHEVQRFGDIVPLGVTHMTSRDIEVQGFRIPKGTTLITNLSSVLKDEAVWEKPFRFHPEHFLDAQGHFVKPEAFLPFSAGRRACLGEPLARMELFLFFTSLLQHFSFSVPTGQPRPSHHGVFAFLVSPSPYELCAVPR

| SMILES | Imax [1] [%] | Kb [2] [nM] | other results |
| --- | --- | --- | --- |
| COc1ccc(S(=O)(=O)N2CCOc3ccc(Cl)cc32)cc1NC1CCN(C)CC1 | 100 | 0.1 | AUC(0-t) at 24 h [3]: 384 ng·h/mL; bioavailability [4]: 12%; Tmax [5]: 0.5 h; Cmax [6]: 197 ng/mL; clearance [7]: 58 mL/min/kg; half-life [8]: 0.7 h; Vd [9]: 2.5 L/kg; AUC(0-t) at 24 h [10]: 1450 ng·h/mL; Kp at 1 h [11]: 0.6; metabolised at 0.5 h, 2.5 µM [12]: 70%; metabolised at 0.5 h, 2.5 µM [13]: 85% |
| CN1CCC(Nc2cccc(S(=O)(=O)n3ccc4cc(Br)ccc43)c2)CC1 | 98 | 10.3 |  |
| CN1CCC(Nc2cccc(S(=O)(=O)n3ccc4ccccc43)c2)CC1 | 92 | 3.19 |  |
| COc1ccc(S(=O)(=O)n2cc(C)c3cc(Cl)ncc32)cc1NC1CCN(C)CC1 | 85 | 1.3 |  |
| Cc1ccc(S(=O)(=O)n2ccc3cc(F)ccc32)cc1NC1CCN(C)CC1 | 97 | 7.5 |  |
| COc1ccc2ccn(S(=O)(=O)c3ccc(OC)c(NC4CCN(C)CC4)c3)c2c1.O=P(O)(O)O | 100 | 0.1 | Kp at 1 h [11]: 0.6 |
| COc1ccc(S(=O)(=O)n2ccc3ccc(F)cc32)cc1NC1CCN(C)CC1 | 100 | 0.2 |  |
| COc1ccc2c(ccn2S(=O)(=O)c2ccc(OC)c(NC3CCN(C)CC3)c2)c1 | 96 | 3.8 |  |
| COc1ccc(S(=O)(=O)n2cc(C)c3nc(Cl)ccc32)cc1NC1CCN(C)CC1 | 98 | 1.7 |  |
| COc1ccc(S(=O)(=O)n2cc(C)c3ccc(Cl)cc32)cc1NC1CCN(C)CC1 | 100 | 0.1 |  |
| COc1ccc(S(=O)(=O)N2CCOc3ccc(F)cc32)cc1NC1CCN(C)CC1 | 100 | 0.1 |  |
| COc1ccc2c(ccn2S(=O)(=O)c2ccc(C)c(NC3CCN(C)CC3)c2)c1 | 70 | 51.3 |  |
| COc1ccc(S(=O)(=O)n2nc(C)c3cc(Cl)ccc32)cc1NC1CCN(C)CC1.O=C(O)C(O)C(O)C(=O)O | 100 | 0.6 | AUC(0-t) at 24 h [3]: 300 ng·h/mL; bioavailability [4]: 25%; Tmax [5]: 2 h; Cmax [6]: 57 ng/mL; clearance [7]: 143 mL/min/kg; half-life [8]: 1.7 h; Vd [9]: 16 L/kg; AUC(0-t) at 24 h [10]: 600 ng·h/mL; Kp at 1 h [11]: 0.5; metabolised at 0.5 h, 2.5 µM [12]: 60%; metabolised at 0.5 h, 2.5 µM [13]: 69%; IC50 (Cytochrome P450 2D6): 14500 nM |
| COc1ccc2ccn(S(=O)(=O)c3cccc(NC4CCN(C)CC4)c3)c2c1 | 100 | 1.2 |  |
| COc1ccc2ccn(S(=O)(=O)c3ccc(C)c(NC4CCN(C)CC4)c3)c2c1 | 98 | 0.25 |  |
| CCc1ccc(S(=O)(=O)n2ccc3cc(F)ccc32)cc1NC1CCN(C)CC1 | 95 | 18.3 |  |
| COc1ccc(S(=O)(=O)n2ccc3ccccc32)cc1NC1CCN(C)CC1 | 100 | 1.22 |  |

| SMILES | Imax [1] [%] | Kb [2] [nM] | other results |
| --- | --- | --- | --- |
| COc1ccc(S(=O)(=O)n2ccc3cc(Cl)cnc32)cc1NC1CCN(C)CC1 | 98 | 0.15 |  |
| Cc1cn(S(=O)(=O)c2cccc(NC3CCN(C)CC3)c2)c2ncc(Cl)cc12 | 99 | 4 |  |
| COc1ccc2c(ccn2S(=O)(=O)c2cccc(NC3CCN(C)CC3)c2)c1 | 96 | 12.5 |  |
| COc1ccc(S(=O)(=O)N2CCOc3ccc(C)cc32)cc1NC1CCN(C)CC1 | 100 | 0.1 |  |
| Cc1ccc(S(=O)(=O)n2cc(C)c3cc(Cl)cnc32)cc1NC1CCN(C)CC1 | 97 | 3.9 |  |
| COc1cnc2c(c1)c(C)cn2S(=O)(=O)c1ccc(OC)c(NC2CCN(C)CC2)c1 | 95 | 2.3 |  |
| COc1ccc(S(=O)(=O)N2CCOc3ccccc32)cc1NC1CCN(C)CC1 | 100 | 0.2 | Ki [14]: > 10000 nM |
| COc1ccc(S(=O)(=O)N2CCc3ccccc3C2)cc1NC1CCN(C)CC1 | 98 | 0.07 | Kp at 1 h [11]: 0.24 |
| CN1CCC(Nc2cc(S(=O)(=O)n3ccc4ccccc43)ccc2F)CC1 | 100 | 1.6 |  |
| COc1ccc(S(=O)(=O)n2ccc3ccc(Cl)cc32)cc1NC1CCN(C)CC1 | 100 | 0.14 |  |
| COc1ccc(S(=O)(=O)n2ccc3cc(Br)ccc32)cc1NC1CCN(C)CC1 | 97 | 1.91 |  |
| COc1ccc(S(=O)(=O)N2CCCc3ccccc32)cc1NC1CCN(C)CC1 | 100 | 0.06 | Kp at 1 h [11]: 0.02 |
| Cc1nn(S(=O)(=O)c2ccc(F)c(NC3CCN(C)CC3)c2)c2ccc(Cl)cc12 | 59 | 10.1 |  |
| CN1CCC(Nc2cccc(S(=O)(=O)n3ccc4ccc(Cl)cc43)c2)CC1 | 98 | 2.39 |  |
| CCc1ccc(S(=O)(=O)n2ccc3ccc(Cl)cc32)cc1NC1CCN(C)CC1 | 98 | 5.3 |  |
| COc1ccc2ccn(S(=O)(=O)c3ccc(Cl)c(NC4CCN(C)CC4)c3)c2c1 | 100 | 3.3 |  |

Now from value to compound, other results behind:

| Imax [1] [%] | Kb [2] [nM] | SMILES | other results |
| --- | --- | --- | --- |
| 100 | 0.3 | COc1ccc(S(=O)(=O)n2ccc3cc(F)ccc32)cc1NC1CCNCC1 |  |
| 100 | 0.52 | Cc1cn(S(=O)(=O)c2ccc(F)c(NC3CCN(C)CC3)c2)c2ccccc12 |  |
| 90 | 12 | COc1cnc2c(ccn2S(=O)(=O)c2ccc(OC)c(NC3CCN(C)CC3)c2)c1 |  |
| 39 | 28.6 | Cc1nn(S(=O)(=O)c2ccc(Cl)c(NC3CCN(C)CC3)c2)c2ccc(Cl)cc12 |  |
| 100 | 2.2 | COc1ccc(S(=O)(=O)n2ccc3cc(OC(C)C)ccc32)cc1NC1CCN(C)CC1 |  |
| 90 | 12.8 | CCc1ccc(S(=O)(=O)n2ccc3c(Cl)cccc32)cc1NC1CCN(C)CC1 |  |
| 98 | 4.37 | COc1ccc(S(=O)(=O)n2ccc3cc(Cl)ccc32)cc1NC1CCN(C)CC1 |  |
| 100 | 0.1 | COc1ccc(S(=O)(=O)N2CC(C)(C)Oc3ccc(F)cc32)cc1NC1CCN(C)CC1 |  |
| 100 | 0.1 | COc1ccc(S(=O)(=O)N2CCCc3ccccc32)cc1NC1CCNCC1 |  |
| 100 | 1.8 | COc1ccc(S(=O)(=O)n2ccc3cc(F)ccc32)cc1NC1CCN(C)CC1 |  |
| 100 | 0.1 | COc1ccc(S(=O)(=O)N2CCOc3ccc(C(F)(F)F)cc32)cc1NC1CCN(C)CC1 |  |
| 99 | 1.39 | CCc1ccc(S(=O)(=O)n2ccc3ccccc32)cc1NC1CCN(C)CC1 |  |
| 100 | 0.3 | COc1ccc(S(=O)(=O)n2ccc3ccc(F)cc32)cc1NC1CCNCC1 |  |
| 95 | 11.7 | COc1ccc2c(ccn2S(=O)(=O)c2ccc(F)c(NC3CCN(C)CC3)c2)c1 |  |
| 100 | 0.1 | COc1ccc2c(C)cn(S(=O)(=O)c3ccc(OC)c(NC4CCN(C)CC4)c3)c2c1 |  |
| 97 | 0.1 | COc1ccc(S(=O)(=O)n2cc(C)c3cc(Cl)cnc32)cc1NC1CCNCC1 |  |
| 99 | 3.2 | COc1ccc(S(=O)(=O)n2ccc3cc(Br)ccc32)cc1NC1CCNCC1 |  |
| 94 | 16 | CN1CCC(Nc2cc(S(=O)(=O)n3ccc4cc(Br)ccc43)ccc2F)CC1 |  |
| 100 | 0.52 | COc1ccc(S(=O)(=O)n2cc(C)c3cc(F)ccc32)cc1NC1CCN(C)CC1 | Ki [14]: 950 nM |

Reference: ChEMBL document CHEMBL2176989, “Design, synthesis, and pharmacological evaluation of piperidin-4-yl amino aryl sulfonamides: novel, potent, selective, orally active, and brain penetrant 5-HT₆ receptor antagonists” (J Med Chem, 2012)
